Source: the OligoGym collection
Several values for one entry are separate records, joined by “and”; a condition that tells them apart may be missing. Equal values may be shown once. HELM strings list units from the 5' end as sugar, base in round brackets, then linkage (d deoxyribose, r ribose, m 2'-O-methyl, p phosphodiester). Strings are as the collection lists them; they lack the last nucleoside at the 3' end of the tested compound. [moe] = 2'-O-(2-methoxyethyl) (MOE); [sp] = phosphorothioate linkage; [m5C] = 5-methylcytosine

Target: SMN2
Test: mouse, dose not given
Conditions: ASO

## RNA1{[moe](T)[sp].[moe]([m5C])[sp].[moe](A)[sp].[moe]([m5C])[sp].[moe](T)[sp].[moe](T)[sp].[moe](T)[sp].[moe]([m5C])[sp].[moe](A)[sp].[moe](T)[sp].[moe](A)[sp].[moe](A)[sp].[moe](T)[sp].[moe](G)[sp].[moe]([m5C])[sp].[moe](T)[sp].[moe](G)[sp].[moe](G)[sp].[moe]([m5C])}$$$$ (last 3' nucleoside missing)
  3 h FOB score: 0 score 0-7

## RNA1{[moe](T)[sp].[moe]([m5C])[sp].[moe](A)[sp].[moe]([m5C])[sp].[moe](T)[sp].[moe](T)[sp].[moe](T)[sp].[moe]([m5C])[sp].[moe](A)[sp].[moe](T)[sp].[moe](A)[sp].[moe](A)[sp].[moe](T)[sp].[moe](G)[sp].[moe]([m5C])[sp].[moe](T)[sp].[moe](G)[sp].[moe](G)p.[moe](A)}$$$$ (last 3' nucleoside missing)
  3 h FOB score: 3.75 score 0-7 and 4 score 0-7 (3×)

## RNA1{[moe](T)[sp].[moe]([m5C])[sp].[moe](A)[sp].[moe]([m5C])[sp].[moe](T)[sp].[moe](T)[sp].[moe](T)[sp].[moe]([m5C])[sp].[moe](A)[sp].[moe](T)[sp].[moe](A)[sp].[moe](A)[sp].[moe](T)[sp].[moe](G)[sp].[moe]([m5C])[sp].[moe](T)[sp].[moe](G)[sp].[moe](G)p.[moe](T)}$$$$ (last 3' nucleoside missing)
  3 h FOB score: 4 score 0-7

## RNA1{[moe](T)[sp].[moe]([m5C])[sp].[moe](A)[sp].[moe]([m5C])[sp].[moe](T)[sp].[moe](T)[sp].[moe](T)[sp].[moe]([m5C])[sp].[moe](A)[sp].[moe](T)[sp].[moe](A)[sp].[moe](A)[sp].[moe](T)[sp].[moe](G)[sp].[moe]([m5C])[sp].[moe](T)[sp].[moe](G)[sp].[moe](G)p.d(A)}$$$$ (last 3' nucleoside missing)
  3 h FOB score: 4 score 0-7 (2×) and 4.25 score 0-7 (2×) and 3.75 score 0-7 (2×)

## RNA1{[moe](T)[sp].[moe]([m5C])[sp].[moe](A)[sp].[moe]([m5C])[sp].[moe](T)[sp].[moe](T)[sp].[moe](T)[sp].[moe]([m5C])[sp].[moe](A)[sp].[moe](T)[sp].[moe](A)[sp].[moe](A)[sp].[moe](T)[sp].[moe](G)[sp].[moe]([m5C])[sp].[moe](T)[sp].[moe](G)[sp].[moe](G)p.d([m5C])}$$$$ (last 3' nucleoside missing)
  3 h FOB score: 4 score 0-7 (2×) and 3.75 score 0-7 (2×) and 3.5 score 0-7

## RNA1{[moe](T)[sp].[moe]([m5C])[sp].[moe](A)[sp].[moe]([m5C])[sp].[moe](T)[sp].[moe](T)[sp].[moe](T)[sp].[moe]([m5C])[sp].[moe](A)[sp].[moe](T)[sp].[moe](A)[sp].[moe](A)[sp].[moe](T)[sp].[moe](G)[sp].[moe]([m5C])p.[moe](T)[sp].[moe](G)[sp].[moe](G)}$$$$ (last 3' nucleoside missing)
  3 h FOB score: 2.25 score 0-7 (2×) and 2.5 score 0-7 and 2 score 0-7

## RNA1{[moe](T)[sp].[moe]([m5C])[sp].[moe](A)[sp].[moe]([m5C])[sp].[moe](T)[sp].[moe](T)[sp].[moe](T)[sp].[moe]([m5C])[sp].[moe](A)[sp].[moe](T)[sp].[moe](A)[sp].[moe](A)[sp].[moe](T)[sp].[moe](G)[sp].[moe]([m5C])p.[moe](T)[sp].[moe](G)}$$$$ (last 3' nucleoside missing)
  3 h FOB score: 2.75 score 0-7

## RNA1{[moe](T)[sp].[moe]([m5C])[sp].[moe](A)[sp].[moe]([m5C])[sp].[moe](T)[sp].[moe](T)[sp].[moe](T)[sp].[moe]([m5C])[sp].[moe](A)[sp].[moe](T)[sp].[moe](A)[sp].[moe](A)[sp].[moe](T)[sp].[moe](G)p.[moe]([m5C])[sp].[moe](T)[sp].[moe](G)}$$$$ (last 3' nucleoside missing)
  3 h FOB score: 3.75 score 0-7

## RNA1{[moe](T)[sp].[moe]([m5C])[sp].[moe](A)[sp].[moe]([m5C])[sp].[moe](T)[sp].[moe](T)[sp].[moe](T)[sp].[moe]([m5C])[sp].[moe](A)[sp].[moe](T)[sp].[moe](A)[sp].[moe](A)[sp].[moe](T)[sp].[moe](G)p.[moe]([m5C])p.[moe](T)[sp].[moe](G)}$$$$ (last 3' nucleoside missing)
  3 h FOB score: 3.5 score 0-7

## RNA1{[moe](T)[sp].[moe]([m5C])[sp].[moe](A)[sp].[moe]([m5C])[sp].[moe](T)[sp].[moe](T)[sp].[moe](T)[sp].[moe]([m5C])[sp].[moe](A)[sp].[moe](T)[sp].[moe](A)[sp].[moe](A)[sp].[moe](T)p.[moe](G)[sp].[moe]([m5C])p.[moe](T)[sp].[moe](G)[sp].[moe](G)}$$$$ (last 3' nucleoside missing)
  3 h FOB score: 1 score 0-7 and 2 score 0-7 and 1.25 score 0-7 (2×)

## RNA1{[moe](T)[sp].[moe]([m5C])[sp].[moe](A)[sp].[moe]([m5C])[sp].[moe](T)[sp].[moe](T)[sp].[moe](T)[sp].[moe]([m5C])[sp].[moe](A)[sp].[moe](T)[sp].[moe](A)[sp].[moe](A)[sp].[moe](T)p.[moe](G)[sp].[moe]([m5C])p.[moe](T)[sp].[moe](G)}$$$$ (last 3' nucleoside missing)
  3 h FOB score: 3 score 0-7

## RNA1{[moe](T)[sp].[moe]([m5C])[sp].[moe](A)[sp].[moe]([m5C])[sp].[moe](T)[sp].[moe](T)[sp].[moe](T)[sp].[moe]([m5C])[sp].[moe](A)[sp].[moe](T)[sp].[moe](A)[sp].[moe](A)p.[moe](T)[sp].[moe](G)[sp].[moe]([m5C])[sp].[moe](T)[sp].[moe](G)}$$$$ (last 3' nucleoside missing)
  3 h FOB score: 3.5 score 0-7

## RNA1{[moe](T)[sp].[moe]([m5C])[sp].[moe](A)[sp].[moe]([m5C])[sp].[moe](T)[sp].[moe](T)[sp].[moe](T)[sp].[moe]([m5C])[sp].[moe](A)[sp].[moe](T)[sp].[moe](A)[sp].[moe](A)p.[moe](T)[sp].[moe](G)p.[moe]([m5C])[sp].[moe](T)[sp].[moe](G)}$$$$ (last 3' nucleoside missing)
  3 h FOB score: 2.5 score 0-7

## RNA1{[moe](T)[sp].[moe]([m5C])[sp].[moe](A)[sp].[moe]([m5C])[sp].[moe](T)[sp].[moe](T)[sp].[moe](T)[sp].[moe]([m5C])[sp].[moe](A)[sp].[moe](T)[sp].[moe](A)p.[moe](A)[sp].[moe](T)[sp].[moe](G)p.[moe]([m5C])[sp].[moe](T)[sp].[moe](G)}$$$$ (last 3' nucleoside missing)
  3 h FOB score: 2 score 0-7

## RNA1{[moe](T)[sp].[moe]([m5C])[sp].[moe](A)[sp].[moe]([m5C])[sp].[moe](T)[sp].[moe](T)[sp].[moe](T)[sp].[moe]([m5C])[sp].[moe](A)[sp].[moe](T)p.[moe](A)[sp].[moe](A)[sp].[moe](T)[sp].[moe](G)[sp].[moe]([m5C])[sp].[moe](T)[sp].[moe](G)}$$$$ (last 3' nucleoside missing)
  3 h FOB score: 3 score 0-7

## RNA1{[moe](T)[sp].[moe]([m5C])[sp].[moe](A)[sp].[moe]([m5C])[sp].[moe](T)[sp].[moe](T)[sp].[moe](T)[sp].[moe]([m5C])[sp].[moe](A)[sp].[moe](T)p.[moe](A)[sp].[moe](A)[sp].[moe](T)[sp].[moe](G)p.[moe]([m5C])[sp].[moe](T)[sp].[moe](G)}$$$$ (last 3' nucleoside missing)
  3 h FOB score: 3.5 score 0-7
